Source: ChEMBL document CHEMBL6153087, “Emoquine-1: A Hybrid Molecule Efficient against Multidrug-Resistant Plasmodium Parasites, Including the Artemisinin-Resistant Quiescent Stage, and Also Active In Vivo” (J Med Chem, 2025)
Activity calls are given as the source filed them. The calls are words filed in the database; no cut-off is given here.

What was measured:
Plasmodium falciparum [1] = assay: (§1) Antiplasmodial activity against synchronized ring stage DHA-induced quiescent artemisinin-resistant Plasmodium falciparum F32 assessed as decrease in parasite recrudescence by measuring time required for parasites to reach initial parasitemia at 1 uM pretreated with dihydroartemisinin for 6 hrs followed by compound administration for 48 hrs in presence of dihydroartemisinin by quiescent-stage survival assay; type: functional
Plasmodium falciparum [2] = assay: Antiplasmodial activity against synchronized ring stage artemisinin-resistant Plasmodium falciparum F32 assessed as number of days required to reach 3% initial parasitemia by measuring median recrudescence time at 1 uM incubated for 48 hrs by recrudescence assay; type: functional
Plasmodium falciparum [3] = assay: Antiplasmodial activity against artemisinin-resistant Plasmodium falciparum F32 assessed as inhibition of parasite growth incubated for 48 hrs of SYBR green fluorescence-based method; type: functional, organism-based; settings: F32, 48 h
Plasmodium falciparum [4] = assay: Antiplasmodial activity against artemisinin-sensitive Plasmodium falciparum F32 assessed as inhibition of parasite growth incubated for 48 hrs of SYBR green fluorescence-based method; type: functional, organism-based; settings: F32, 48 h
Heme [5] = assay: Inhibition of heme polymerization in acetate buffer at pH 5 assessed as reduction in beta-hematin formation at 2.0 molequiv incubated for 18 hrs by infrared spectroscopic analysis relative to control
[6] = Stability in human plasma assessed as parent compound remaining at 1 uM measured after 2 hrs by LC-MS/MS analysis; type: ADME, cell-free; settings: read-out: Stability
[7] = Metabolic stability in human liver microsomes assessed as half-life at 1 uM measured after 1 hrs by LC-MS/MS analysis; type: ADME, Microsome
[8] = Selectivity index, ratio of CC50 for cytotoxicity against African green monkey Vero cells to IC50 for antiplasmodial activity against artemisinin-resistant Plasmodium falciparum F32; type: toxicity, cell-based; settings: read-out: Ratio CC50/IC50
Plasmodium falciparum [9] = assay: Antiplasmodial activity against synchronized ring stage artemisinin-sensitive Plasmodium falciparum F32 assessed as number of days required to reach 3% initial parasitemia by measuring median recrudescence time at 1 uM incubated for 48 hrs by recrudescence assay; type: functional
Plasmodium falciparum [10] = assay: Antiplasmodial activity against chloroquine-resistant Plasmodium falciparum clinical isolate IPC8461 assessed as inhibition of parasite growth incubated for 48 hrs of SYBR green fluorescence-based method; type: functional, organism-based
[11] = Metabolic stability in human liver microsomes at 1 uM measured after 1 hrs by LC-MS/MS analysis; type: ADME, Microsome
[12] = Thermal stability at 60 degreeC incubated for 2 months; type: physicochemical; settings: 1460 h
Plasmodium falciparum [13] = assay: Antiplasmodial activity against chloroquine-resistant Plasmodium falciparum clinical isolate IPC8262 assessed as inhibition of parasite growth incubated for 48 hrs of SYBR green fluorescence-based method; type: functional, organism-based
Plasmodium falciparum [14] = assay: Antiplasmodial activity against atovaquone-resistant Plasmodium falciparum clinical isolate Q120 assessed as inhibition of parasite growth incubated for 48 hrs of SYBR green fluorescence-based method; type: functional, organism-based
[15] = Cytotoxicity against African green monkey Vero cells assessed as cell metabolic activity incubated for 48 hrs by MTT assay; type: toxicity, cell-based; settings: chlorocebus sabaeus
Plasmodium falciparum [16] = assay: Antiplasmodial activity against synchronized ring stage artemisinin-resistant Plasmodium falciparum F32 assessed as decrease in parasite recrudescence by measuring time required for parasites to reach initial parasitemia at 200 nM incubated for 48 hrs by recrudescence assay; type: functional
Plasmodium falciparum [17] = assay: as §1, with “200 nM” for “1 uM”; type: functional
Plasmodium falciparum [18] = assay: Antiplasmodial activity against synchronized ring stage artemisinin-resistant Plasmodium falciparum F32 assessed as decrease in parasite recrudescence by measuring time required for parasites to reach initial parasitemia at […] incubated for 54 hrs by recrudescence assay; type: functional
Plasmodium falciparum [19] = assay: Antiplasmodial activity against synchronized ring stage artemisinin-resistant Plasmodium falciparum F32 assessed as number of days required to reach 3% initial parasitemia by measuring median recrudescence time at 7 uM incubated for 48 hrs by recrudescence assay; type: functional
Plasmodium falciparum [20] = assay: Antiplasmodial activity against synchronized ring stage artemisinin-sensitive Plasmodium falciparum F32 assessed as number of days required to reach 3% initial parasitemia by measuring median recrudescence time at 7 uM incubated for 48 hrs by recrudescence assay; type: functional
Plasmodium falciparum [21] = assay: Antiplasmodial activity against synchronized ring stage artemisinin-resistant Plasmodium falciparum F32 assessed as decrease in parasite recrudescence by measuring time required for parasites to reach initial parasitemia at 1 uM incubated for 48 hrs by recrudescence assay; type: functional
Heme [22] = assay: Inhibition of heme polymerization in acetate buffer at pH 5 assessed as reduction in beta-hematin formation at 10 molequiv incubated for 18 hrs by infrared spectroscopic analysis
Plasmodium falciparum [23] = assay: as §1, with “recrudescence” for “recrudescence by measuring time required for parasites to reach initial parasitemia”; type: functional, organism-based
Heme [24] = assay: Inhibition of heme polymerization in acetate buffer at pH 5 assessed as reduction in beta-hematin formation at 5 equiv incubated for 18 hrs by infrared spectroscopic analysis relative to control
Heme [25] = assay: Inhibition of heme polymerization in acetate buffer at pH 5 assessed as reduction in beta-hematin formation at 1.2 molar ratio of drug to hemin incubated for 18 hrs by infrared spectroscopic analysis relative to control
Plasmodium falciparum [26] = assay: Antiplasmodial activity against synchronized ring stage artemisinin-resistant Plasmodium falciparum F32 assessed as number of days required to reach 3% initial parasitemia by measuring median recrudescence time at 0.5 uM incubated for 48 hrs by recrudescence assay; type: functional
[27] = test system: Plasmodium vinckei petteri; assay: Antiplasmodial activity Plasmodium vinckei petteri infected in female Swiss mouse model assessed as reduction in parasitemia at 1 mg/kg/day, ip administered for 4 days starting from 4 hrs post infection and measured on day 5 by giemsa staining based analysis relative to control; type: functional; parameters: scale not given: the % may be the effect or the level left; settings: time 5 day
[28] = test system: Plasmodium vinckei petteri; assay: Antiplasmodial activity Plasmodium vinckei petteri infected in female Swiss mouse model assessed as reduction in parasitemia administered orally for 4 days starting from 4 hrs post infection and measured on day 30; type: functional; settings: 720 h, route po, time 30 day
[29] = test system: Plasmodium vinckei petteri; assay: Antiplasmodial activity Plasmodium vinckei petteri infected in female Swiss mouse model assessed as reduction in parasitemia at 10 mg/kg/day, ip administered for 4 days starting from 4 hrs post infection and measured on day 30 by giemsa staining based analysis; type: functional, organism-based; settings: time 30.0 day
[30] = test system: Plasmodium vinckei petteri; assay: Antiplasmodial activity Plasmodium vinckei petteri infected in female Swiss mouse model assessed as reduction in parasitemia at 25 mg/kg/day, po administered for 4 days starting from 4 hrs post infection and measured on day 5 by giemsa staining based analysis relative to control; type: functional; parameters: scale not given: the % may be the effect or the level left; settings: time 5 day
Plasmodium falciparum [31] = assay: Antiplasmodial activity against synchronized ring stage artemisinin-sensitive Plasmodium falciparum F32 assessed as number of days required to reach 3% initial parasitemia by measuring median recrudescence time at 0.5 uM incubated for 48 hrs by recrudescence assay; type: functional
[32] = Toxicity in female Swiss mouse model infected with Plasmodium vinckei petteri assessed as clinical signs at 0.1 to 10 mg/kg/day, ip administered for 4 days and measured after 30 days; type: organism-based; settings: in vivo, 720 h, dose 0.1-10 mg/kg/day, time 30 day
[33] = test system: Plasmodium vinckei petteri; assay: Antiplasmodial activity Plasmodium vinckei petteri infected in female Swiss mouse model assessed as reduction in parasitemia at 10 mg/kg/day, ip administered for 4 days starting from 4 hrs post infection and measured on day 5 by giemsa staining based analysis; type: functional, organism-based; settings: time 5.0 day
[34] = test system: Plasmodium vinckei petteri; assay: Antiplasmodial activity Plasmodium vinckei petteri infected in female Swiss mouse model assessed as reduction in parasitemia at 0.1 mg/kg/day, ip administered for 4 days starting from 4 hrs post infection and measured on day 5 by giemsa staining based analysis; type: functional, organism-based; settings: time 5.0 day
[35] = test system: Plasmodium vinckei petteri; assay: Antiplasmodial activity Plasmodium vinckei petteri infected in female Swiss mouse model assessed as reduction in parasitemia administered intraperitoneally for 4 days starting from 4 hrs post infection and measured on day 30; type: functional; settings: 720 h, route ip, time 30 day
Plasmodium falciparum [36] = assay: Antiplasmodial activity against Plasmodium falciparum; type: functional, organism-based
[37] = Inhibition of recombinant Plasmodium falciparum 3D7 FIKK8 by enzyme-coupled assay
Heme [38] = assay: Inhibition of heme polymerization in acetate buffer at pH 5 assessed as reduction in beta-hematin formation at 15 equiv incubated for 18 hrs by infrared spectroscopic analysis relative to control
Plasmodium falciparum [39] = assay: Antiplasmodial activity against synchronized ring stage artemisinin-sensitive Plasmodium falciparum F32 assessed as number of days required to reach 3% initial parasitemia by measuring median recrudescence time at 18 uM incubated for 48 hrs by recrudescence assay; type: functional
[40] = test system: Plasmodium vinckei petteri; assay: Antiplasmodial activity Plasmodium vinckei petteri infected in female Swiss albino mouse model assessed as reduction in parasitemia administered intraperitoneally for 4 days and measured on day 5; type: functional; settings: 120 h, route ip, time 5 day
[41] = test system: Plasmodium vinckei petteri; assay: Antiplasmodial activity Plasmodium vinckei petteri infected in female Swiss albino mouse model assessed as reduction in parasitemia administered orally for 4 days and measured on day 5; type: functional; settings: 120 h, route po, time 5 day
Plasmodium falciparum [42] = assay: Antiplasmodial activity against synchronized ring stage artemisinin-resistant Plasmodium falciparum F32 assessed as number of days required to reach 3% initial parasitemia by measuring median recrudescence time at 18 uM incubated for 48 hrs by recrudescence assay; type: functional

| Structure (SMILES) | IC50 (Plasmodium falciparum [3]) | IC50 (Plasmodium falciparum [4]) | selectivity ratio [8] | IC50 (Plasmodium falciparum [10]) | IC50 (Plasmodium falciparum [13]) | IC50 (Plasmodium falciparum [14]) | CC50 at 48 h [15] | other results |
| --- | --- | --- | --- | --- | --- | --- | --- | --- |
| Clc1ccc([C@@H](c2ccccc2)N2CCN(CCNc3ccnc4cc(Cl)ccc34)CC2)cc1 | 101 nM | 75 nM | 140 | 53 nM | 33 nM | 9000 nM | 14000 nM | Time (Plasmodium falciparum [1]): 7 days; Time (Plasmodium falciparum [2]): 12 days; inhibition (Heme [5]): 100%; remaining at 2 h, 1 µM [6]: 100%; half-life at 1 µM [7]: 46 min; Time (Plasmodium falciparum [9]): 11 days; Stability [11]: Stable; Stability [12]: Stable |
| CCN(CC)CCCC(C)Nc1ccnc2cc(Cl)ccc12 (configuration not stated) [CHLOROQUINE] | – | – | – | – | – | – | > 50000 nM | Time (Plasmodium falciparum [16]): >20 days; Time (Plasmodium falciparum [17]): 8 days |
| C[C@H]1[C@@H](O)O[C@@H]2O[C@@]3(C)CC[C@H]4[C@H](C)CC[C@@H]1[C@@]24OO3 [ARTENIMOL] | – | 2.2 nM | 12000 | 2.6 nM | 2.5 nM | 2.4 nM | 30000 nM | Time (Plasmodium falciparum [18]): 8 days |
| Clc1ccc2c(N3CCNCC3)ccnc2c1 | 1310 nM | 1400 nM | – | – | – | – | – | – |
| O=C1C(O)=C([C@H]2CC[C@H](c3ccc(Cl)cc3)CC2)C(=O)c2ccccc21 [ATOVAQUONE] | 1.9 nM | – | 3700 | 1 nM | 0.7 nM | 4700 nM | 7000 nM | Time (Plasmodium falciparum [1]): 20 days; Time (Plasmodium falciparum [19]): 16 days; Time (Plasmodium falciparum [20]): 13 days; Time (Plasmodium falciparum [21]): 14 days |
| Clc1ccc([C@@H](c2ccccc2)N2CCNCC2)cc1 | > 10000 nM | 6000 nM | < 2 | – | – | 9000 nM | 20000 nM | inhibition (Heme [22]): inactive; inhibition (Heme [5]): inactive; Activity (Plasmodium falciparum [23]): inactive |
| Cc1cc(O)c2c(c1)C(=O)c1cc(OCCN3CCN(c4ccnc5cc(Cl)ccc45)CC3)cc(O)c1C2=O | 775 nM | – | > 13 | – | – | – | > 10000 nM | – |
| CCOCCOc1cc(O)c2c(c1)C(=O)c1cc(C)cc(O)c1C2=O | > 10000 nM | > 10000 nM | – | – | – | – | – | inhibition (Heme [24]): 100%; Activity (Plasmodium falciparum [23]): inactive |
| Cc1cc(O)c2c(c1)C(=O)c1cc(OCCOCCNCCNc3ccnc4cc(Cl)ccc34)cc(O)c1C2=O | 54 nM | 59 nM | 222 | 84 nM | 33 nM | 24 nM | 12000 nM | Time (Plasmodium falciparum [1]): >22 days; inhibition (Heme [25]): 100%; Time (Plasmodium falciparum [26]): 23 days; Activity [27]: 17%; ED50 [28]: ~25 mg/kg/day; remaining at 2 h, 1 µM [6]: 100%; Activity [29]: Active; Recrudescence Not Observed; Time (Plasmodium falciparum [9]): >30 days; Activity [30]: 44%; Stability [12]: Stable; Time (Plasmodium falciparum [31]): 26 days; Activity [32]: Non-toxic; Activity [33]: Not active; No Detectable Parasitemia Observed; Activity [34]: inactive; ED50 [35]: 4 mg/kg/day |
| Cc1cc(O)c2c(c1)C(=O)c1cc(OCCOCCN3CCN(c4ccnc5cc(Cl)ccc45)CC3)cc(O)c1C2=O | 825 nM | – | 15 | – | – | – | 12000 nM | – |
| Cc1cc(O)c2c(c1)C(=O)c1cc(O)cc(O)c1C2=O [EMODIN] | > 50000 nM | – | < 0.7 | – | – | – | 34000 nM | IC50 (Plasmodium falciparum [36]): > 10000 nM; IC50 [37]: 2000 nM |
| NCCNc1ccnc2cc(Cl)ccc12 | 54 nM | 28 nM | > 925 | 354 nM | 134 nM | 2300 nM | > 50000 nM | inhibition (Heme [22]): inactive; inhibition (Heme [5]): inactive; inhibition (Heme [38]): 100%; Activity (Plasmodium falciparum [23]): inactive |
| C[C@@H]1CC[C@H]2[C@@H](C)C(=O)O[C@@H]3O[C@@]4(C)CC[C@@H]1[C@]32OO4 [ARTEMISININ] | – | – | – | – | – | – | – | Time (Plasmodium falciparum [39]): 15 days; ED50 [40]: 4 mg/kg/day; ED50 [41]: 17 mg/kg/day; Time (Plasmodium falciparum [42]): 10 days |
